The source of these data is patent US6787569B1, “Therapeutic guanidines” (Cambridge NeuroScience, Inc., priority 1994, dated 2004).

The experiment concerns depolarization-induced 3H-glutamate release from brain nerve terminals. Nature of the experiment: Inhibition of 3H-glutamate release, high [K+] depolarization, rapid superfusion of synaptosomes. It counts as biochemical. To be noted: rat brain synaptosomes; for % Inhibition of ^3H-Glu Rel @ 1 μM: 1 μM compound; for % Inhibition of ^3H-Glu Rel @ 0.3 μM: 0.3 μM compound; for % Inhibition of ^3H-Glu Rel @ 0.1 μM: 0.1 μM compound.

For the compound `CCC(C)c1ccc(N(Cc2ccc(OCc3ccccc3)cc2)C(=N)N)cc1.Cl` (centres unmarked) [Example 66, N-(4-sec-Butylphenyl)-N-(4-benzyloxybenzyl)guanidine.HCl], the “% Inhibition of ^3H-Glu Rel @ 1 μM” value was determined as 54%.

Consider `Cl.N=C(N)N(Cc1ccc(OCc2ccccc2)cc1)c1ccc(OCc2ccccc2)cc1` [Example 67, N-(4-Benzyloxyphenyl)-N-(4-benzyloxybenzyl)guanidine.HCl], for which the “% Inhibition of ^3H-Glu Rel @ 1 μM” value is 36%.

As for `Cl.N=C(N)N(Cc1cccc(OCc2ccccc2)c1)c1ccc2c3c(cccc13)CC2` [Example 68, N-(5-Acenaphthyl)-N-(3-benzyloxybenzyl)guanidine.HCl], the “% Inhibition of ^3H-Glu Rel @ 1 μM” value is 76%.

With `CCC(C)c1ccc(N(Cc2ccc(C(C)(C)C)cc2)C(=N)NN2CCOCC2)cc1.Cl` (centres unmarked) [Example 75, N-(4-sec-Butylphenyl)-N-(4-tert-butylbenzyl)-N′-(4-morpholinyl)guanidine.HCl], the “% Inhibition of ^3H-Glu Rel @ 0.3 μM” value was 42%.

As to `CCCCOc1ccc(N(Cc2ccc(C(C)(C)C)cc2)C(=N)NC2CCNCC2)cc1.Cl` [Example 77, N-(4-Butoxyphenyl)-N-(4-tert-butylbenzyl)-N′-(4-piperidinyl)guanidine.HCl], the “% Inhibition of ^3H-Glu Rel @ 0.3 μM” value turned out to be 44%.

With `CCC(C)c1ccc(N(Cc2ccc(C(C)(C)C)cc2)C(=N)N2CCC(Cc3ccccc3)CC2)cc1.CS(=O)(=O)O` (centres unmarked) [Example 78], the “% Inhibition of ^3H-Glu Rel @ 0.3 μM” value came to 22%.

`CCC(C)c1ccc(N(Cc2ccc(C(C)(C)C)cc2)C(=N)N2CCc3ccccc3C2)cc1.Cl` (centres unmarked) [Example 80]: the “% Inhibition of ^3H-Glu Rel @ 0.3 μM” value was determined as 68%.

In the case of `CCC(C)c1ccc(N(Cc2ccc(C(C)(C)C)cc2)C(=N)NN2C(C)COCC2C)cc1.Cl` (centres unmarked) [Example 82, N-(4-sec-Butylphenyl)-N-(4-tert-butylbenzyl)-N′-(3,5-dimethyl-4-morpholinyl)guanidine.HCl], the “% Inhibition of ^3H-Glu Rel @ 0.3 μM” value worked out at 60%.

With `CCC(C)c1ccc(N(C)C(=N)N(Cc2ccc(C(C)(C)C)cc2)c2ccc(C(C)(C)C)cc2)cc1.Cl` (centres unmarked) [Example 83, N-(4-tert-Butylphenyl)-N-(4-tert-butylbenzyl)-N′-(4-sec-butylphenyl)-N′-(methyl)guanidine.HCl], the “% Inhibition of ^3H-Glu Rel @ 0.3 μM” value is on record as 31% and the “% Inhibition of ^3H-Glu Rel @ 1 μM” value is recorded as 63%.

Take `CCC(C)c1ccc(N(C)C(=N)N(Cc2ccc(C(C)(C)C)cc2)c2ccc(C(C)CC)cc2)cc1.Cl` (centres unmarked) [Example 84, N-(4-sec-Butylphenyl)-N-(4-tert-butylbenzyl)-N′-(4-sec-butylphenyl)-N′-(methyl)guanidine.HCl]: the “% Inhibition of ^3H-Glu Rel @ 1 μM” value is 37%.

Turning to `CCC(C)c1ccc(N(Cc2ccc(C(C)(C)C)cc2)C(=N)Nc2ccccc2)cc1.Cl` (centres unmarked) [Example 85, N-(4-sec-Butylphenyl)-N-(4-tert-butylbenzyl)-N′-(phenyl)guanidine.HCl], the “% Inhibition of ^3H-Glu Rel @ 0.3 μM” value was found to be 55% and the “% Inhibition of ^3H-Glu Rel @ 1 μM” value is 100%.

`CCC(C)c1ccc(N(Cc2ccc(C(C)(C)C)cc2)C(=N)Nc2ccc(Cl)cc2)cc1.Cl` (centres unmarked) [Example 86, N-(4-sec-Butylphenyl)-N-(4-tert-butylbenzyl)-N′-(4-chlorophenyl)guanidine.HCl]: the “% Inhibition of ^3H-Glu Rel @ 0.1 μM” value is 16% and the “% Inhibition of ^3H-Glu Rel @ 0.3 μM” value is given as 45%.

On to `CCCCOc1ccc(N(Cc2ccc(C(C)(C)C)cc2)C(=N)Nc2ccccc2)cc1.Cl` [Example 87, N-(4-Butoxylphenyl)-N-(4-tert-butylbenzyl)-N′-(phenyl)guanidine.HCl], for which the “% Inhibition of ^3H-Glu Rel @ 0.3 μM” value is reported as 36%.

As for `CCC(C)c1ccc(N(Cc2ccc(C(C)(C)C)cc2)C(=N)N(C)c2ccccc2)cc1.Cl` (centres unmarked) [Example 88, N-(4-sec-Butylphenyl)-N-(4-tert-butylbenzyl)-N′-(phenyl)-N′-methylguanidine.HCl], the “% Inhibition of ^3H-Glu Rel @ 0.3 μM” value is listed as 77%.

Turning to `CCC(C)c1ccc(N(Cc2ccc(C(C)(C)C)cc2)C(=N)Nc2ccc(Cl)c(Cl)c2)cc1.Cl` (centres unmarked) [Example 89, N-(4-sec-Butylphenyl)-N-(4-tert-butylbenzyl)-N′-(3,4-dichlorophenyl)guanidine.HCl], the “% Inhibition of ^3H-Glu Rel @ 0.3 μM” value is recorded as 21%.

For the compound `CCCCCCc1ccc(N(Cc2ccc(C(C)(C)CCC)cc2)C(=N)Nc2ccccc2)cc1.Cl` [Example 90, N-(4-Hexylphenyl)-N-(4-tert-hexylbenzyl)-N′-phenylguanidine.HCl], the “% Inhibition of ^3H-Glu Rel @ 0.3 μM” value is recorded as 42%.

Regarding `CCC(C)c1ccc(N(Cc2ccc(C(C)(C)C)cc2)C(=N)Nc2ccc(OCc3ccccc3)cc2)cc1.CS(=O)(=O)O` (centres unmarked) [Example 91, N-(4-sec-Butylphenyl)-N-(4-tert-butylbenzyl)-N′-(4-benzyloxyphenyl)guanidine.mesylate], the “% Inhibition of ^3H-Glu Rel @ 0.3 μM” value is given as 49%.

`CC(C)(C)c1ccc(NC(=N)Nc2ccc(OCc3ccccc3)cc2)cc1.Cl` [Example 93, N-(4-Benzyloxyphenyl)-N′-(4-tert-butylphenyl)guanidine.HCl]: the “% Inhibition of ^3H-Glu Rel @ 0.3 μM” value is 48% and the “% Inhibition of ^3H-Glu Rel @ 1 μM” value came to 91%.

On to `CN(C(=N)Nc1ccc(C(C)(C)C)cc1)c1ccc(OCc2ccccc2)cc1.CS(=O)(=O)O` [Example 95, N-Methyl-N-4-benzyloxyphenyl-N′-(4-tert-butylphenyl)guanidin.mesylat], for which the “% Inhibition of ^3H-Glu Rel @ 0.3 μM” value is 44% and the “% Inhibition of ^3H-Glu Rel @ 1 μM” value is listed as 100%.

For the compound `CCCCCCc1ccc(NC(=N)Nc2ccc(CCCCCC)cc2)cc1.CS(=O)(=O)O` [Example 96, N,N′-Bis-(4-Hexylphenyl)guanidine.mesylate], the “% Inhibition of ^3H-Glu Rel @ 0.1 μM” value was determined as 54% and the “% Inhibition of ^3H-Glu Rel @ 0.3 μM” value stood at 54%.

Consider `CCOc1ccc(Cc2cccc(CCNC(=N)Nc3ccc(C(C)(C)C)cc3)c2)cc1.CS(=O)(=O)O` [Example 97, N-(3-(1-(4′-Ethoxy)benzyl)phenethyl)-N′-(4-tert-butylphenyl)guanidine.mesylate], for which the “% Inhibition of ^3H-Glu Rel @ 0.3 μM” value turned out to be 31%.

In the case of `CN(C(=N)Nc1ccc(OCc2ccccc2)cc1)c1ccc(C(C)(C)C)cc1.CS(=O)(=O)O` [Example 98, N-(4-Benzyloxyphenyl)-N′-methyl-N′-(4-tert-butylphenyl)guanidine.mesylate], the “% Inhibition of ^3H-Glu Rel @ 0.3 μM” value stood at 28%.

With `CC(C)(C)c1ccc(COc2cccc(NC(=N)Nc3ccc(C(C)(C)C)cc3)c2)cc1.CS(=O)(=O)O` [Example 99, N-(3-(4-tert-Butylbenzyloxy)phenyl)-N′-(4-tert-butylphenyl)guanidine.mesylate], the “% Inhibition of ^3H-Glu Rel @ 0.3 μM” value is 20%.

Turning to `CCCC(Cc1ccccc1)c1cccc(NC(=N)Nc2ccc(C(C)(C)C)cc2)c1.CS(=O)(=O)O` (centres unmarked) [Example 100, N-(3-(1′-Benzylbutyl)phenyl)-N′-(4-tert-butylphenyl)guanidine.mesylate], the “% Inhibition of ^3H-Glu Rel @ 0.3 μM” value is 20%.

In the case of `CCCCc1ccc(NC(=N)N(C)c2ccc(CCCC)cc2)cc1.Cl` [Example 101, N,N′-Bis-(4-butylphenyl)-N-methylguanidine.HCl], the “% Inhibition of ^3H-Glu Rel @ 0.3 μM” value is on record as 35%.

On to `CN(C(=N)N(C)c1ccc(C(C)(C)C)cc1)c1ccc(C(C)(C)C)cc1.Cl` [Example 102, N,N′-Bis-(4-tert-butylphenyl)-N,N′-dimethylguanidine.HCl], for which the “% Inhibition of ^3H-Glu Rel @ 0.1 μM” value is 18% and the “% Inhibition of ^3H-Glu Rel @ 0.3 μM” value is reported as 73%.

Take `CCCCc1ccc(NC(=N)N(CCCC)c2ccc(CCCC)cc2)cc1.Cl` [Example 105, N,N′-Bis-(4-butylphenyl)-N-butylguanidine.HCl]: the “% Inhibition of ^3H-Glu Rel @ 0.1 μM” value stood at 24% and the “% Inhibition of ^3H-Glu Rel @ 0.3 μM” value was 86%.

As for `CCCCOc1ccc(NC(=N)Nc2ccc(C(C)(C)C)cc2)cc1OCCCC.O=C(O)C(=O)O` [Example 107, N-(3,4-Bis-butyloxyphenyl)-N′-(4-tert-butylphenyl)guanidine.oxalate], the “% Inhibition of ^3H-Glu Rel @ 0.3 μM” value is reported as 34%.

Turning to `Br.CCCCOc1cc(NC(=N)Nc2ccc(OC)c(OCCCC)c2)ccc1OC` [Example 109, N,N′-Bis-((3-butoxy-4-methoxy)phenyl)guanidine.HBr], the “% Inhibition of ^3H-Glu Rel @ 0.3 μM” value came to 86%.

With `Br.N=C(Nc1ccc2c(c1)CCCC2)Nc1ccc2c(c1)CCCC2` [Example 111, N,N′-Bis-(6-tetralinyl)guanidine.HBr], the “% Inhibition of ^3H-Glu Rel @ 0.3 μM” value was 61%.

As for `CN(C(=N)Nc1ccc(OCc2ccccc2)cc1)c1ccc(OCc2ccccc2)cc1.CS(=O)(=O)O` [Example 132, N,N′-Bis(4-benzyloxyphenyl)-N′-methylguanidine.mesylate], the “% Inhibition of ^3H-Glu Rel @ 0.3 μM” value was determined as 22%.

For `Br.N=C(Nc1ccc(Oc2ccccc2)cc1)Nc1ccc(Oc2ccccc2)cc1` [Example 138, N,N′-Bis(4-phenoxyphenyl)guanidine.HBr], the “% Inhibition of ^3H-Glu Rel @ 0.3 μM” value amounted to 57%.

Take `CS(=O)(=O)O.N=C(Nc1ccc(N=Nc2ccccc2)cc1)Nc1cccc(OCc2ccccc2)c1` [Example 140, N-(3-Benzyloxyphenyl)-N′-(4-phenylazophenyl)guanidine.mesylate]: the “% Inhibition of ^3H-Glu Rel @ 0.3 μM” value amounted to 44%.

In the case of `CN(C(=N)Nc1cccc(OCc2ccccc2)c1)c1cccc(OCc2ccccc2)c1.Cl` [Example 141, N,N′-Bis(3-benzyloxyphenyl)-N′-methylguanidine.HCl], the “% Inhibition of ^3H-Glu Rel @ 0.3 μM” value was determined as 67%.

With `CN(C(=N)Nc1cccc(OCc2ccccc2)c1)c1ccc(OCc2ccccc2)cc1` [N-(3-benzyloxyphenyl)-N′-(4-benzyloxyphenyl)-N′-methylguanidine], the “% Inhibition of ^3H-Glu Rel @ 0.3 μM” value was 55%.

For the compound `N=C(Nc1ccc(OCc2ccccc2)cc1)Nc1ccc(SCc2ccccc2)cc1` [N-(4-benzyloxyphenyl)-N′-(4-benzylthiophenyl)guanidine], the “% Inhibition of ^3H-Glu Rel @ 0.3 μM” value was 81%.

Consider “N-(4-sec-Butylphenyl)-N-(4-tert-butylbenzyl)-N′-piperidinylguanidine.HCl [Example 74]”, for which the “% Inhibition of ^3H-Glu Rel @ 0.3 μM” value was 21% and the “% Inhibition of ^3H-Glu Rel @ 1 μM” value was 100%.

As for “N-(5-Acenaphthyl)-N′-((4-tert-butylphenyl)-(4-sec-butylphenyl)-N′-methylguanidine.HCl [Example 60]”, under “3 μM compound”, the “% Inhibition of ^3H-Glu Rel @ 3 μM” value was 32%.
